Test results published in paper PMC8119466, “A screen of FDA-approved drugs identifies inhibitors of protein tyrosine phosphatase 4A3 (PTP4A3 or PRL-3)” (Scientific Reports, 2021).
Where a name gives a salt, the structure may show the parent alone. Read-outs that look alike come from different tables or passages of the source.

Key:
Format in all cases: biochemical
recombinant PRL-3 = biological target: T1, recombinant PRL-3 (Homo sapiens, UniProt O75365); assay: In vitro phosphatase assay (DiFMUP hydrolysis), PRL-3; note: test concentration or dose not given here
T1 construct: 6xHis (N, cleaved yes); made in house; host or cells: E. coli One Shot BL21 Star

recombinant PRL-1 = biological target: T2, recombinant PRL-1 (Homo sapiens, UniProt Q93096); assay: In vitro phosphatase assay (DiFMUP hydrolysis), PRL-1; note: test concentration or dose not given here
T2 construct: 6xHis (N, cleaved yes); made in house; host or cells: E. coli One Shot BL21 Star
T2 sequence (Q93096 1-173): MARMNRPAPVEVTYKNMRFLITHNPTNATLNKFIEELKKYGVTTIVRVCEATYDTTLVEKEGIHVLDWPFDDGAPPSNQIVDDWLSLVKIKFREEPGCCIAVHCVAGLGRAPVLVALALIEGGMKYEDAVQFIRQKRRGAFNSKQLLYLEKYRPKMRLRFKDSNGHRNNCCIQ

recombinant PRL-2 = biological target: T3, recombinant PRL-2 (Homo sapiens, UniProt Q12974); assay: In vitro phosphatase assay (DiFMUP hydrolysis), PRL-2;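 note: PRL-2 activity read as DiFMUP hydrolysis after 20 min at room temperature with drug, enzyme first pre-reduced at 4 °C for 20 min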
T3 construct: 6xHis (N, cleaved yes); made in house; host or cells: E. coli One Shot BL21 Star
T3 sequence (Q12974 1-167): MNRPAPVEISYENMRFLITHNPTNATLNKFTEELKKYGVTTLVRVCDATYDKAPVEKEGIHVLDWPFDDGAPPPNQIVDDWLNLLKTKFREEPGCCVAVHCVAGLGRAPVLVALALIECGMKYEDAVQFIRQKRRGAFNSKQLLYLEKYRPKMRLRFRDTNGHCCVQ

[1] = FDA-approved drug screen, compared to DMSO
[2] = FDA-approved drug screen, activity compared to DMSO

T1 sequence (O75365 whole entry): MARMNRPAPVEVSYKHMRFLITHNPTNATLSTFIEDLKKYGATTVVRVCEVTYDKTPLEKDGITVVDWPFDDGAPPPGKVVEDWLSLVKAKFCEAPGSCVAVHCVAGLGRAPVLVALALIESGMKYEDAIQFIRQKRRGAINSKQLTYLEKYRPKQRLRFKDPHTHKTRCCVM

SMILES | % Phosphatase Activity (compared to DMSO) PRL-3 (recombinant PRL-3; [1]) | % Phosphatase Activity (compared to DMSO) PRL-1 (recombinant PRL-1; [1]) | % Phosphatase Activity (compared to DMSO) PRL-2 (recombinant PRL-2; [1]) | other results
CC(C(=O)O)c1cccc(C(=O)c2ccccc2)c1 (stereo not drawn) [Ketoprofen] | 87% | 105% | 95% | –
CNCCCC12CCC(c3ccccc31)c1ccccc12 [Maprotiline HCl] | – | – | – | % Phosphatase Activity (compared to DMSO) PRL-3 (recombinant PRL-3): 87%; % Phosphatase Activity (compared to DMSO) PRL-1 (recombinant PRL-1): 127%; % Phosphatase Activity (compared to DMSO) PRL-2 (recombinant PRL-2): 116%
Cn1c([N+](=O)[O-])cnc1COC(N)=O [Ronidazole] | 62% | 86% | 95% | –
OCCN1C[C@H](O)[C@@H](O)[C@H](O)[C@H]1CO [Miglitol] | 88% | 114% | 120% | –
COc1c(N2CCNC(C)C2)c(F)cc2c(=O)c(C(=O)O)cn(C3CC3)c12 (stereo not drawn) [Gatifloxacin] | 122% | 146% | 187% | –
CC1(C)CCC(C)(C)c2cc(NC(=O)c3ccc(C(=O)O)cc3)ccc21 [Tamibarotene] | – | – | – | % Phosphatase Activity (compared to DMSO) PRL-3 (recombinant PRL-3; [2]): 73%; % Phosphatase Activity (compared to DMSO) PRL-1 (recombinant PRL-1; [2]): 93%; % Phosphatase Activity (compared to DMSO) PRL-2 (recombinant PRL-2; [2]): 80%
CN(C)[C@@H]1C(=O)C(C(N)=O)=C(O)[C@@]2(O)C(=O)C3=C(O)c4c(O)cccc4[C@@](C)(O)[C@H]3[C@H](O)[C@@H]12 [Oxytetracycline (Terramycin)] | 74% | 58% | 73% | –
CC(NCCc1ccc(O)cc1)C(O)c1ccc(O)cc1 (stereo not drawn) [Ritodrine HCl] | 83% | 113% | 98% | –
CCC(C)(C)c1ccc(CC(C)CN2C[C@@H](C)O[C@@H](C)C2)cc1 (stereo partly drawn) [Amorolfine HCl] | 78% | 102% | 94% | –
CCOc1cc2ncc(C#N)c(Nc3ccc(OCc4ccccn4)c(Cl)c3)c2cc1NC(=O)/C=C/CN(C)C [Neratinib (HKI-272)] | 91% | 110% | 111% | –
Cn1cnc([N+](=O)[O-])c1Sc1ncnc2nc[nH]c12 [Azathioprine] | – | – | – | % Phosphatase Activity (compared to DMSO) PRL-3 (recombinant PRL-3): 74%; % Phosphatase Activity (compared to DMSO) PRL-1 (recombinant PRL-1): 96%; % Phosphatase Activity (compared to DMSO) PRL-2 (recombinant PRL-2): 107%
CCCN1C[C@H](CSC)C[C@@H]2c3cccc4[nH]cc(c34)C[C@H]21 [Pergolide mesylate] | 90% | 109% | 119% | –
NCCCNCCSP(=O)(O)O [Amifostine] | 114% | 110% | 108% | –
COc1cc2nc(N3CCN(C(=O)C4CCCO4)CC3)nc(N)c2cc1OC (stereo not drawn) [Terazosin] | – | – | – | % Phosphatase Activity (compared to DMSO) PRL-3 (recombinant PRL-3; [2]): 448%; % Phosphatase Activity (compared to DMSO) PRL-1 (recombinant PRL-1; [2]): 595%; % Phosphatase Activity (compared to DMSO) PRL-2 (recombinant PRL-2; [2]): 423%
COc1cc(C(=O)NC2CCCNC2)cc(OC)c1OC (stereo not drawn) [Troxipide] | – | – | – | % Phosphatase Activity (compared to DMSO) PRL-3 (recombinant PRL-3; [2]): 79%; % Phosphatase Activity (compared to DMSO) PRL-1 (recombinant PRL-1; [2]): 95%; % Phosphatase Activity (compared to DMSO) PRL-2 (recombinant PRL-2; [2]): 110%
CCC1(C)CC(=O)NC1=O (stereo not drawn) [Ethosuximide] | 79% | 95% | 104% | –

SMILES | % Phosphatase Activity (compared to DMSO) PRL-3 (recombinant PRL-3; [1]) | % Phosphatase Activity (compared to DMSO) PRL-1 (recombinant PRL-1; [1]) | % Phosphatase Activity (compared to DMSO) PRL-2 (recombinant PRL-2; [1]) | other results
C[C@H]1C[C@@H]2[C@H]([C@@H](O)C[C@@]3(C)[C@H]2CC[C@]3(O)C(=O)CO)[C@@]2(C)C=CC(=O)C=C12 [Methylprednisolone] | 92% | 90% | 95% | –
C1N2CN3CN1CN(C2)C3 [Methenamine] | 87% | 112% | 109% | –
O=C(O)CCc1nc2ccccc2[nH]1 [Procodazole] | 86% | 98% | 85% | –
CN(C)CCc1c[nH]c2ccc(CS(=O)(=O)N3CCCC3)cc12.O=C(O)CC(O)C(=O)O [Almotriptan Malate] | 68% | 97% | 114% | –
CCn1cc(C(=O)O)c(=O)c2cc(F)c(N3CCNC(C)C3)c(F)c21 (stereo not drawn) [Lomefloxacin HCl] | 110% | 123% | 121% | –
C=C[C@]1(C)C[C@@H](OC(=O)CS[C@@H]2C[C@H]3CC[C@@H](C2)N3C)[C@]2(C)[C@H](C)CC[C@]3(CCC(=O)[C@H]32)[C@@H](C)[C@@H]1O [Retapamulin] | 67% | 85% | 123% | –
CCOC(=O)CC(=O)N1CCSC1COc1ccccc1OC (stereo not drawn) [Moguisteine] | 87% | 104% | 98% | –
NCCCC(O)(P(=O)(O)O)P(=O)(O)O [Alendronate] | – | – | – | % Phosphatase Activity (compared to DMSO) PRL-3 (recombinant PRL-3): 79%; % Phosphatase Activity (compared to DMSO) PRL-1 (recombinant PRL-1): 110%; % Phosphatase Activity (compared to DMSO) PRL-2 (recombinant PRL-2): 93%
O=P1(NCCCl)OCCCN1CCCl (stereo not drawn) [Ifosfamide] | 78% | 100% | 99% | –
COc1cc2ncnc(Nc3ccc(F)c(Cl)c3)c2cc1NC(=O)/C=C/CN1CCCCC1 [Dacomitinib (PF299804, PF299)] | 120% | 145% | 147% | –
CC(C)Cc1ccc(C(C)C(=O)O)cc1 (stereo not drawn) [Ibuprofen] | 82% | 99% | 87% | –
Cc1cc(C(C)(C)C)c(O)c(C)c1CC1=NCCN1 [Oxymetazoline hydrochloride] | 82% | 99% | 118% | –
CO[C@H]1O[C@@H]2O[C@@]3(C)CC[C@H]4[C@H](C)CC[C@@H]([C@H]1C)[C@@]24OO3 [Artemether] | 85% | 87% | 96% | –
CC(C)C[C@H](NC(=O)[C@@H](NC(=O)c1cccc(-c2ccccc2)n1)[C@@H](C)O)B(O)O [CEP-18770 (Delanzomib)] | 82% | 103% | 98% | –
Cc1nc(Nc2ncc(C(=O)Nc3c(C)cccc3Cl)s2)cc(N2CCN(CCO)CC2)n1 [Dasatinib] | 81% | 89% | 88% | –
C=C1c2cccc(O)c2C(=O)C2=C(O)[C@]3(O)C(=O)C(C(N)=O)=C(O)[C@@H](N(C)C)[C@@H]3[C@@H](O)[C@H]12 [Methacycline HCl] | 83% | 82% | 65% | –
